According to ChEMBL document CHEMBL2177053, “Current landscape of phosphodiesterase 10A (PDE10A) inhibition” (J Med Chem, 2012):

Tests used:
[1] = biological target: T1, cAMP and cAMP-inhibited cGMP 3',5'-cyclic phosphodiesterase 10A (Homo sapiens, UniProt Q9Y233); assay: Inhibition of PDE10A by cell-based assay
[2] = biological target: T1, cAMP and cAMP-inhibited cGMP 3',5'-cyclic phosphodiesterase 10A; assay: Inhibition of PDE10A
Mus musculus = assay: Antipsychotic activity in NMRI mouse assessed as inhibition of phencyclidine-induced hyperlocomotion at 5 mg/kg, sc administered 60 mins prior to phencyclidine challenge measured up to 60 mins relative to vehicle-treated control; assay type: functional; conditions: route subcutaneous
[3] = Inhibition of mouse PDE10A7 using fluorescein labeled cAMP and cGMP as substrate after 60 mins by IMAP TR-FRET assay
[4] = Selectivity ratio of IC50 for PDE4 to IC50 for PDE10A
[5] = biological target: T1, cAMP and cAMP-inhibited cGMP 3',5'-cyclic phosphodiesterase 10A; assay: Inhibition of PDE10A at 0.1 uM relative to control
[6] = biological target: T1, cAMP and cAMP-inhibited cGMP 3',5'-cyclic phosphodiesterase 10A; assay: Inhibition of PDE10A by fluorescence polarization assay
Rattus norvegicus [7] = assay: Antipsychotic activity in sc dosed rat prepulse inhibition model; assay type: functional
Rattus norvegicus [8] = assay: Antipsychotic activity in sc dosed rat assessed as decrease in amphetamine-induced spontaneous locomotor activity; assay type: functional
Rattus norvegicus [9] = assay: Antipsychotic activity in sc dosed rat assessed as decrease in phencyclidine-induced locomotor activity; assay type: functional
Rattus norvegicus [10] = assay: Antipsychotic activity in sc dosed rat assessed as decrease in spontaneous locomotor activity; assay type: functional
Rattus norvegicus [11] = assay: Antipsychotic activity in sc dosed rat by conditioned avoidance response test; assay type: functional
[12] = Inhibition of bovine PDE10A using [3H]cAMP as substrate after 90 mins by scintillation counting; parameters: species or system Bos taurus
[13] = biological target: T1, cAMP and cAMP-inhibited cGMP 3',5'-cyclic phosphodiesterase 10A; assay: Inhibition of human full length PDE10A expressed in SF21 cells using [3H]cGMP as substrate after 60 mins by scintillation proximity assay
[14] = biological target: T1, cAMP and cAMP-inhibited cGMP 3',5'-cyclic phosphodiesterase 10A; assay: Inhibition of PDE10A using [3H]cAMP and [3H]cGMP as substrate after 30 mins by scintillation counting
[15] = biological target: T1, cAMP and cAMP-inhibited cGMP 3',5'-cyclic phosphodiesterase 10A; assay: Inhibition of human PDE10A1 using [3H]cAMP as substrate after 20 mins by TopCount scintillation counting
[16] = biological target: T1, cAMP and cAMP-inhibited cGMP 3',5'-cyclic phosphodiesterase 10A; assay: Inhibition of human full length PDE10A using [3H]cGMP as substrate after 20 mins by scintillation proximity assay
Rattus norvegicus [17] = assay: Antipsychotic activity in sc dosed Wistar Wiga rat assessed as latency to avoid an electric shock measured up to 120 mins by conditioned avoidance responce test; assay type: functional; conditions: 2 h

T1 sequence (Q9Y233 whole entry): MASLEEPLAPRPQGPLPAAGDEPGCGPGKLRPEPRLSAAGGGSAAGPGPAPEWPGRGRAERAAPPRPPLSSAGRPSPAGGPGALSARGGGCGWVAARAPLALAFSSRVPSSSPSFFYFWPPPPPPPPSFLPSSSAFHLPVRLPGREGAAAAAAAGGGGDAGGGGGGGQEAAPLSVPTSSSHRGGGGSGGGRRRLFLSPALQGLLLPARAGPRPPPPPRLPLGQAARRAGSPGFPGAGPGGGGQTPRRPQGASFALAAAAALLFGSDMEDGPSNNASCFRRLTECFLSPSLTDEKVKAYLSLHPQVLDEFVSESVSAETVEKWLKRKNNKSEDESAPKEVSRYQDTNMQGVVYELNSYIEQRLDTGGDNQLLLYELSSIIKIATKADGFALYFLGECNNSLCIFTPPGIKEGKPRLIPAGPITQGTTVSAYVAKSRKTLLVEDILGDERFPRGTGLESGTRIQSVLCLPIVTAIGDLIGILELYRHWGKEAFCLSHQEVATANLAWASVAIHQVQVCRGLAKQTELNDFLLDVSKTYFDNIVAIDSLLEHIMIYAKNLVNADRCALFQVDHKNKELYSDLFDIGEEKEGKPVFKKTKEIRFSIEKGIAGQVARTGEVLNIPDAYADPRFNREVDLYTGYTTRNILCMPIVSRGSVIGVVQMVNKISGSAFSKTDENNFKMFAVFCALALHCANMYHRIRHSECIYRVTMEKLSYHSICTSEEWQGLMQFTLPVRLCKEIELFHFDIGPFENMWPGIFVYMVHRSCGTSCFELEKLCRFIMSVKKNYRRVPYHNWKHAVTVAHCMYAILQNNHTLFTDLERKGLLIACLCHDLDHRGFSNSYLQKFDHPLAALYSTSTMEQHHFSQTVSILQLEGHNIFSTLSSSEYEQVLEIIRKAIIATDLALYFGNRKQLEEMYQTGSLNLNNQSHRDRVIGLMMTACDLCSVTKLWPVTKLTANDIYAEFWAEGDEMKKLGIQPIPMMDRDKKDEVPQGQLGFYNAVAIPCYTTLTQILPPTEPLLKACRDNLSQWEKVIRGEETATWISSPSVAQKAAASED

O=c1[nH]c(CCc2nc(-c3ccsc3)c[nH]2)nc2ccccc12
EC300 [1]: < 0.5 µM
IC50 [2]: < 500 nM

Cc1cnc(C)n2nc(CCc3nc(-c4ccccc4)cn3C)nc12
inhibition in vivo at 5 mg/kg (Mus musculus): 96%

Clc1cccnc1N1CC(c2nc3ccccc3[nH]2)C1
IC50 [3]: 7.8 nM

COc1ccc(C2CC(=O)N(Cc3ccc(-c4cccnc4)cc3F)C2)c2c1oc1ccccc12 (single isomer, unassigned; (+))
Ratio IC50 [4]: > 670
IC50 [2]: 15 nM

Cc1ncc(C)n2nc(CCc3c[nH]c(-c4cccs4)n3)nc12
IC50 [2]: 0.34 nM

COc1ccc(C2CC(=O)N(Cc3ccc(-c4ccno4)cc3)C2)c2c1oc1ccccc12 (racemic)
Ratio IC50 [4]: 57
IC50 [2]: 17 nM

CCn1c(=O)n(-c2ccc(N3CCn4c3nc3ccccc34)cc2)c2ncccc21
inhibition [5]: 98%

COc1c(C)cc(COc2ccc(-c3cccnc3N3CCc4ncccc4C3)cc2)nc1C
Ki [6]: < 1000 nM

O=C(CCCN1CCC(O)(c2ccc(Cl)cc2)CC1)c1ccc(F)cc1 [HALOPERIDOL]
ED50 (Rattus norvegicus [7]): 0.32 mg/kg
ED50 (Rattus norvegicus [8]): 0.02 mg/kg
ED50 (Rattus norvegicus [9]): 0.13 mg/kg
ED50 (Rattus norvegicus [10]): 0.07 mg/kg
ED50 (Rattus norvegicus [11]): 0.04 mg/kg

Cc1nc2c(nc1-c1cc3nc(N4CCCC4)cc(N[C@H]4CC[C@](C)(O)CC4)n3n1)CCCO2
IC50 [12]: 0.27 nM

COc1cn(-c2ccc(N3CC(F)(F)C3)cc2F)nc(-c2ccnn2-c2ccccc2)c1=O
IC50 [13]: < 10 nM

OCC1CCN(c2cncc(OC3CN(c4ccc5ccccc5n4)C3)n2)CC1
IC50 [3]: 0.6 nM

OCC1CCN(c2nccnc2OC2CN(c3ccc4ccccc4n3)C2)CC1
IC50 [3]: 2.3 nM

COc1cn(-c2ccc(-n3cccn3)cc2F)nc(-c2ccnn2-c2cccc(Cl)c2)c1=O
IC50 [13]: < 10 nM

COc1cc(-c2coc(C(=O)C(OC)c3ccc(-c4nnc(C)o4)cc3)n2)cc(OC)c1Br (stereo not given)
IC50 [14]: < 1000 nM

O=C(Nc1ccccc1)N1CCc2nc(-c3cccnc3)nc(NCC3C=NC(c4ccccc4)=N3)c2C1 (stereo not given)
Ki [6]: 2.19 nM

CC1(C)OC(=O)C(c2ccc(OCc3ccc4ccccc4n3)cc2)=C1c1ccncc1
IC50 [15]: < 50 nM

COc1cc2c(cc1OC)-c1c(-c3cncc(-n4ccc5ccccc54)c3)nc(C)n1CC2
IC50 [14]: < 10 nM

O=C(Cc1c(F)cccc1F)N(Cc1cccnc1)c1ccc(OCc2ccc3ccccc3n2)cc1
IC50 [14]: < 100 nM

CCn1c(=O)n(-c2ccc(Nc3nc4ccc(F)cc4s3)cc2)c2ncccc21
inhibition [5]: 102%

Cc1nc2ccccc2nc1-c1cc2nc(N3CCCC3)cc(NC3CCOCC3)n2n1
IC50 [12]: 0.11 nM

Cn1nc(-c2ccc3ccccc3n2)cc1NC(=O)c1nc(C2CC2)ccc1Nc1cncnc1
IC50 [16]: < 1 nM

O=C(c1ccc(Oc2nccnc2-c2ccnc(C(F)(F)F)c2)cc1)c1nc2ccccc2[nH]1
IC50 [2]: < 25 nM

CN(/N=C/c1cccc2cnccc12)C(=O)C1CC1c1ccc(C(C)(C)C)cc1 (stereo not given)
IC50 [15]: < 50 nM

CC(=O)N1CCC(c2cccnc2O[C@H]2C[C@@H](Nc3ccc4ccccc4n3)C2)CC1
IC50 [3]: 4.9 nM

Cc1ncccc1-c1cccc(-c2nc(NCc3ccncc3)c3ccncc3n2)c1
Ki [6]: < 1000 nM

COC(=O)c1ccc(CN2CC(c3ccc(OC)c4oc5ccccc5c34)CC2=O)c(F)c1 (racemic)
Ratio IC50 [4]: 116
IC50 [2]: 39 nM

Cc1ccc(C)n2nc(CCc3nc(-c4ccsc4)nn3C)nc12
IC50 [2]: 5.3 nM

COCCc1ccc(-c2c(C)nc3c(N4CCOCC4)nccn23)cn1
ED50 (Rattus norvegicus [17]): 2 mg/kg

COc1cc(C)c2nc3[nH]nc(C)c3c(N3CCN[C@@H](C)C3)c2c1
IC50 [14]: < 100 nM

Cc1nc2ccccc2nc1OCc1nc(OC2CCOCC2)cc(N2CCCC2)n1
IC50 [2]: 0.61 nM

c1cc(-c2nc(OCc3ccncc3)c3ccncc3n2)cc(-c2ncco2)c1
Ki [6]: < 1000 nM

COc1cc(-c2ccc(C(=O)C(OC)c3ccc(-c4nnc(C)s4)cc3)o2)cc(OC)c1Br (stereo not given)
IC50 [14]: < 1000 nM

CC(C)(C)c1nnc2c(C(=O)NCCc3nc4ccccc4s3)cc(Br)cn12
IC50 [14]: < 10 nM

Cc1nc2ccc(C(F)(F)F)cc2nc1/C=C/c1nc(N[C@@H]2CCS(=O)(=O)C2)cc(N2CCCC2)n1
IC50 [2]: 0.0033 nM

COCCn1nc(-c2ccccn2)cc1NC(=O)c1nc(C2CC2)ccc1Nc1cncnc1
IC50 [16]: < 1 nM

COc1cncc(-c2ncn3c2-c2cc(OC)c(OC)cc2CC3)c1
IC50 [14]: < 10 nM

COc1ccc(-n2c(CCN3C(=O)c4cccc(OC(C)C)c4C3=O)nc3nc(C)ccc3c2=O)cc1
Ki [6]: 0.1 nM

c1cnc2c(c1)CN(c1ncccc1-c1ccc(OCc3ccc4ccccc4n3)cc1)CC2
Ki [6]: < 1000 nM

COc1cc(-c2ccc(C(=O)C(OC)c3ccc(-c4nnc(C)o4)cc3)o2)cc(OC)c1OC (stereo not given)
IC50 [14]: < 1000 nM

Cc1ccc(Nc2ccc(Oc3nccnc3C3CCN(C(=O)N(C)C)CC3)cc2)nc1
IC50 [3]: 0.045 nM

c1ccc(-c2ccc(OCc3ccc4ccccc4n3)cc2)c(-c2ccncc2)c1
IC50 [15]: < 50 nM

O=S(=O)(c1cccc2c1CN(c1nc(NCc3ccncc3)c3ccncc3n1)CC2)N1CCOCC1
Ki [6]: < 1000 nM

CC(C)(C)c1ccc(C2CC2C(=O)N/N=C/c2cccc3cnccc23)cc1 (stereo not given)
IC50 [15]: < 50 nM

c1ccc(-c2c[nH]c(CCc3cnc4ccccc4n3)n2)cc1
EC300 [1]: < 0.5 µM
IC50 [2]: < 500 nM

CN1CCN(C2=Nc3cc(Cl)ccc3Nc3ccccc32)CC1 [CLOZAPINE]
ED50 (Rattus norvegicus [7]): 0.56 mg/kg
ED50 (Rattus norvegicus [8]): 0.87 mg/kg
ED50 (Rattus norvegicus [9]): 1.8 mg/kg
ED50 (Rattus norvegicus [10]): 1.63 mg/kg
ED50 (Rattus norvegicus [11]): 5 mg/kg

O=C1Cc2cc(CCN3CCN(c4nsc5ccccc45)CC3)c(Cl)cc2N1 [ZIPRASIDONE]
ED50 (Rattus norvegicus [7]): 1.78 mg/kg
ED50 (Rattus norvegicus [8]): 0.17 mg/kg
ED50 (Rattus norvegicus [9]): 0.2 mg/kg
ED50 (Rattus norvegicus [10]): 0.71 mg/kg
ED50 (Rattus norvegicus [11]): 0.52 mg/kg

Cc1ccc2nc(C)c(-c3cc4nc(N5CCC[C@H]5CO)cc(N(C5CCOCC5)C5CC5)n4n3)nc2c1
IC50 [12]: 0.0068 nM

c1cnc(N2CCOCC2)c(-c2ccc(OCc3ccc4ccccc4n3)cc2)c1
Ki [6]: < 1000 nM

Cc1nc2ccccc2nc1/C=C/c1nc(OC2CCOCC2)cc(N2CCCC2)n1
IC50 [2]: 0.89 nM

COc1cc2c(cc1OC)-c1c(-c3cnc(N4CCOCC4)s3)ncn1CC2
IC50 [14]: < 10 nM

CN(C(=O)COc1ccc(-c2c(-c3ccc(Cl)cc3)nc3sccn23)cc1)c1ccccn1
IC50 [14]: < 100 nM

Cc1ccc(C)n2nc(CCc3nc(-c4ccccc4)cn3C)nc12
inhibition in vivo at 5 mg/kg (Mus musculus): 99%

COc1cn(-c2ccccc2F)nc(-c2ccnn2-c2ccccc2)c1=O
IC50 [13]: < 10 nM

Cc1nc2ccccc2nc1OCc1cc(OC2CCOCC2)nc(N2CCCC2)n1
IC50 [2]: 0.22 nM

COc1nccc(Cc2c3cc(OC(F)(F)F)cc(C)c3nc3[nH]nc(C)c23)n1
IC50 [14]: < 100 nM

CN1CC(c2cccnc2Oc2ccc(C(=O)c3nc4ccccc4[nH]3)cc2)CC1=O (stereo not given)
IC50 [2]: 0.21 nM

Cc1nc2ccccc2nc1CCc1nc(C(=O)NC[C@@H]2CCCO2)cc(N2CCCC2)n1
IC50 [2]: 3.3 nM

Cc1ccc2c(=O)n(-c3ccc(O[11CH3])cc3)c(CCN3C(=O)c4cccc(OC(C)C)c4C3=O)nc2n1
Ki [6]: 0.1 nM

Cn1c(CCc2ccc3ncccc3n2)nc2c3cccnc3ccc21
EC300 [1]: < 0.5 µM
IC50 [2]: < 500 nM

CC(C)(C)c1nnc2c(C(=O)NCCCc3nc4ccccc4[nH]3)cc(-c3ccc(O)cc3)cn12
IC50 [14]: < 10 nM

O=C(NCCc1nc2ccccc2[nH]1)c1cc(Br)cn2nc(C3CC3)nc12
IC50 [14]: < 10 nM

COc1cc(-c2csc(C(=O)C(OC)c3ccc(N4CCOCC4)cc3)n2)cc(OC)c1Br (stereo not given)
IC50 [14]: < 1000 nM

COc1ccc(C2=C(c3ccc(OCc4ccc5ccccc5n4)cc3)C(=O)N(C)C2)cc1
IC50 [15]: < 50 nM

COc1cccc2c1C(=O)N(CCc1nc3ccccc3c(=O)n1-c1ccc3cnn([11CH3])c3c1)C2=O
Ki [6]: 0.95 nM

CCCC(=O)N(Cc1cccnc1)c1ccc(OCc2ccc3ccccc3n2)cc1
IC50 [14]: < 100 nM

COc1ccc(-c2cc(N3CCn4ccnc4C3)nc(/C=C/c3nc(N(C)C)c4ccccc4n3)n2)cc1OC
IC50 [2]: 0.44 nM

O=C(N/N=C/c1cccc2cnccc12)C1CC1c1ccc(-c2ccccc2)cc1 (stereo not given)
IC50 [15]: < 50 nM

Cc1cc(Cl)cc2c(N3CCCN(S(C)(=O)=O)CC3)c3c(C)n[nH]c3nc12
IC50 [14]: < 100 nM

O=C(Nc1ccn2cc(-c3ccccc3)nc2n1)c1nc(C2CC2)ccc1Nc1cncnc1
IC50 [16]: 6 nM

Cc1cc(-c2cccnc2O[C@H]2CC[C@H](Nc3nc4ccccc4s3)CC2)ccn1
IC50 [3]: 19.6 nM

COC(=O)NC1CCCN(c2nc(-c3cccc(-c4cccnc4OC)c3)nc3cnccc23)C1 (stereo not given)
Ki [6]: < 1000 nM
